Measurements published in PMC9504208, “Comprehensive Study of Antiretroviral Drug Permeability at the Cervicovaginal Mucosa via an In Vitro Model” (Pharmaceutics, 2022).

Legend:
Type in all cases: cell-based, human
VK2/E6E7 cells = test: Intracellular accumulation of digoxin in cytokine-stimulated VK2/E6E7 cells; conditions: 5 µM digoxin, 1 h; after cytokine stimulation
Method: A 500 μL sample from each well was stored and the remainder of the buffer was aspirated from the plates. The wells were then washed twice with ice-cold PBS to stop any further uptake of the drug. To each well, 500 μL of ddH2O was added and cells were removed using a cell scraper. The cell suspension was then transferred to individual tubes for mechanical cell lysis using a 21-gauge needle followed by a freeze-thaw cycle at -80 °C. Protein content for normalisation calculations was measured via a bicinchoninic acid assay. The solution was then centrifuged at 14,000× g for 15 min and the supernatants were stored at -80 °C until analysis by LC-MS/MS. Samples were centrifuged at 14,800 rpm for 5 min to remove cell debris. […] Analysis was performed on a Thermo Surveyor TSQ Quantum system using electrospray ionisation in positive ion mode. Samples (5 μL) were applied to a C18 column (Gemini 3μ, 150 × 3.0 mm, Phenomenex, Macclesfield, UK) maintained at 40 °C. […] The flow rate for both methods was 350 μL/min. […] Cytokines were reconstituted in sterile and distilled water and added individually to cell cultures at the following concentrations: TNF-α (200 pg/mL), IL-1β (8 ng/mL), IL-6 (5 ng/mL) and IL-8 (100 ng/mL) were. […] Cells were stimulated for either drugs, cytokines or hormones for 72 h, before harvesting by centrifugation at 300× g for 10 min at 4 °C. […] All cell line stimulation experiments were conducted as a minimum of three biological repeats.

[1] = test system: drug transporter mRNA expression in HEC-1A cells; test: Drug transporter mRNA expression (RT-qPCR) in stimulated HEC-1A cells; conditions: 72 h stimulation
Method: (§1) Control was 0.1% DMSO with no drug. Cytokines were reconstituted in sterile and distilled water and added individually to cell cultures at the following concentrations: TNF-α (200 pg/mL), IL-1β (8 ng/mL), IL-6 (5 ng/mL) and IL-8 (100 ng/mL) were. […] Cells were stimulated for either drugs, cytokines or hormones for 72 h, before harvesting by centrifugation at 300× g for 10 min at 4 °C. For Lactobacillus crispatus a final MoI of 10 was used (10:1, bacterial cells:mammalian cell ratio) for co-culture in both HEC-1A and VK2/E6E7 cell lines. For Candida albicans, a final MoI of 1 for HEC-1A cells and 0.25 for VK2/E6E7 cells was used. Cells were incubated with fungal cells at 37 °C/5% CO2 for 24 h. All cell line stimulation experiments were conducted as a minimum of three biological repeats.
(§2) RNA extraction was performed using the RNeasy® Mini Kit (Qiagen, Manchester, UK). Cells were lysed by suspension in 600 μL of RLT Buffer with 1% β-mercaptoethanol (Sigma-Aldrich) and mechanical lysis into a QIAshredder (Qiagen). After the addition of 70% ethanol, the solution was loaded onto RNeasy columns for RNA purification as per the manufacturer’s instructions. DNase treatment was 15 min at room temperature. RNA was eluted from the columns with 30 μL of RNase-free ddH2O. Tapestation analysis was performed using an Agilent 2200 Tapestation system to determine the integrity of the RNA.
(§3) Synthesis of cDNA was performed using a Superscript® VILO™ kit (Life Technologies, Paisley, UK). Reverse transcription was performed at 25 °C for 10 min, 42 °C for 60 min and 85 °C for 5 min. The cDNA was then stored at −20 °C until RT-PCR assays.
(§4) SYBRgreen® PrecisionTM 2× qPCR Mastermix with ROX quencher (Primer Design, Southampton, UK) was used for all RT-qPCR assays. Individual primers were designed to target the HPRT1 and RPLP0 housekeeper genes (selected from an initial panel based on SD scores as a measure of the consistency of expression amongst all samples) in addition to seventeen ARV-associated drug transporters (9 ABC transporters and 8 SLC transporters) replicating the system contained in the TaqMan® 96-well Drug Transporter Array system (Life Technologies, Paisley, UK). Real-time quantitative PCR was performed using the 7900HT Fast Real-Time PCR system and data was analysed using the SDS 2.4 software (Applied Biosystems, Waltham, MA, USA). Cycling conditions were: 95 °C for 5 min, followed by 40 cycles of denaturation at 95 °C for 10 s, annealing at 60 °C for 10 s and extension at 72 °C for 10 s. Relative transcript levels in drug-stimulated cells were determined using the comparative Ct method (ΔΔCt method). Fold-change values of ±2–3 were considered minor, ±3–5 as moderate and >±5 as high.

[2] = test system: drug transporter mRNA expression in VK2/E6E7 cells; test: Drug transporter mRNA expression (RT-qPCR) in stimulated VK2/E6E7 cells; conditions: 72 h cytokine stimulation
Method: as §1, §2, §3, §4

HEC-1A cells = test: Cytokine production of HEC-1A cells stimulated with PAMPs (Luminex); conditions: for Pro-inflammatory cytokine production: 24 h stimulation
Method: HEC-1A cells were stimulated with different PAMPs (pam 3CSK4, lipoteichoic acid, poly(I:C), Escherichia coli lipopolysaccharide, FSL-1, flagellin, imiquimod, zymosan) (InvivoGen, San Diego, CA, USA) diluted in cell culture media with incubation at 37 °C in 5% CO2 for 24 h. PAMPs were titrated to determine the optimal concentration for cytokine stimulation. Blank samples contained media only. After 24 h, the supernatant was collected for cytokine detection. Cytokine levels were determined using a Magnetic Luminex® Performance Assay kit (R&D Systems, Minneapolis, MN, USA) following the manufacturer’s instructions. Analyte-specific antibodies were pre-coated onto colour-coded microparticles and detection was carried out with a biotinylated antibody cocktail specific to the target cytokines and a streptavidin-phycoerythrin conjugate. Samples were resuspended in 100 µL of Washing Buffer and measured for a phycoerythrin-derived signal using a Luminex® 100 instrument.

Row | Substance | Effect on intracellular uptake of digoxin (VK2/E6E7 cells) | Change in expression of drug transporters (panel of 17) [1] | Expression of uptake transporters OATP8 and CNT3 [2] | P-gp mRNA level [2] | Pro-inflammatory cytokine production (HEC-1A cells) | Optimum concentration for cytokine stimulation (HEC-1A cells; titration 1–50 µg/ml) [µg/mL]
1 | IL-1β: pro-inflammatory cytokine | significantly reduced | No changes | induce the expression | increased | – | –
2 | IL-6: pro-inflammatory cytokine | not | No changes | induce the expression | increased | – | –
3 | IL-8: pro-inflammatory cytokine | – | No changes | – | – | – | –
4 | TNF-α | significantly reduced | No changes | induce the expression | increased | – | –
5 | flagellin | – | – | – | – | stimulated production of IL-8, GM-CSF and TNF-α | –
6 | poly(I:C) | – | – | – | – | induced production of IL-6, IL-8, IL-1α, GM-CSF and TNF-α | 25
